Laboratory results as given in US20240208901A1, “Deuterated 3,3'-Diselenodipropionic Acid (DSePA) and Its Use as an Anticancer or Radioprotective Agent” (Secretary, Department of Atomic Energy, priority 2022, published 2024).

What was measured:
[1] = tested on: human NSCLC cells such as A549, H1975 and H3122; test: MTT assay, human NSCLC cells (summary statement); type: cell-based; details: read-out: half maximum concentration (IC50) for growth inhibition
Text: 3,3′-Disclenodipropionic acid-D8 (D-DSePA, chemical structure shown in FIG. 1) was synthesized by reacting freshly prepared sodium selenide (Na2Se2) and 3-bromopropionic acid-D4 in D2O solvent with 42% yield. The synthesized D-DSePA was purified and characterized by NMR spectroscopy and mass spectrometry. The molecular structure of D-DSePA has been established by single-crystal X-ray diffraction analysis. The treatment of D-DSePA and un-deuterated DSePA inhibited the growth of human NSCLC cells such as A549, H1975 and H3122 with half maximum concentration (IC50) in the range of 5-50 μM by MTT assay. […] Finally, at identical treatment concentration, D-DSePA offered better radioprotection to non-cancerous WI38 cells with a dose modification factor (DMF) of 1.16±0.05 as compared to un-deuterated DScPA with DMF of 1.12±0.03.
MTT Assay—To evaluate the anti-proliferative effect of D-DScPA and DScPA, Cells (˜5×10^3) suspended in 100 μl of complete culture medium were seeded in each well of 96 well plates. […] The percentage (%) cytotoxicity was calculated from the decrease in absorbance at 570 nm of treated groups as compared to that of control group. […] The therapeutic index was calculated by normalizing the IC50 concentration of D-DSePA/DSePA in non-cancerous cells to that in cancerous cells.

A549 cells [2] = test: Clonogenic assay in A549 cells; type: cell-based, human; details: Homo sapiens, 168 h, seven days treatment, read-out: IC50 to inhibit growth (survival fraction)
Procedure: Further, clonogenic assay is considered as the gold standard method for evaluating the anticancer activity of any compound and is also a good indicator of the in vivo efficacy of any anticancer compound. Therefore, the therapeutic index of DSePA and D-DSePA in A549/WI-38 cells was also validated by employing the clonogenic assay. For this, A549/WI-38 cells were treated with the varying concentrations (0.1-2 μM)/(1-500 μM) of DSePA/D-DSePA for seven days and the survival fraction was calculated by counting the number of surviving clones (FIG. 11A). The plot of survival fraction verses the concentration of DScPA/D-DSCPA was used to estimate the IC50 of above compounds to inhibit the growth of A549/WI-38 cells. […] This clearly confirmed that deuteration of DScPA reduced its toxicity in normal cells without compromising its efficacy in cancer cells. […]
(§1) Clonogenic assay—Clonogenic assay was performed according to the method reported previously. […] After 7 days, colonies were fixed with absolute methanol for 5 min, stained with 0.5% crystal violet for 5 min, washed with distilled water to remove excess stain and counted manually under a stereo microscope. […] The plating efficiency and the survival fraction under irradiated and drug treated conditions were calculated using following formulae: […]
(§2) The plating efficiency of A549 and WI38 cells was calculated by seeding ˜300 and ˜500 cells respectively. […]

WI-38 cells = test: Clonogenic assay, radioprotection of WI-38 cells against γ-irradiation; type: cell-based, human; details: WI-38 cells pretreated 24 h with 0.5 μM drug, γ-irradiation 2-12 Gy, clonogenic assay
Procedure: Further, clonogenic assay is considered as the gold standard method for evaluating the anticancer activity of any compound and is also a good indicator of the in vivo efficacy of any anticancer compound. Therefore, the therapeutic index of DSePA and D-DSePA in A549/WI-38 cells was also validated by employing the clonogenic assay. For this, A549/WI-38 cells were treated with the varying concentrations (0.1-2 μM)/(1-500 μM) of DSePA/D-DSePA for seven days and the survival fraction was calculated by counting the number of surviving clones (FIG. 11A). The plot of survival fraction verses the concentration of DScPA/D-DSCPA was used to estimate the IC50 of above compounds to inhibit the growth of A549/WI-38 cells. […] This clearly confirmed that deuteration of DScPA reduced its toxicity in normal cells without compromising its efficacy in cancer cells. Since anticancer agents are intended to be used in combination with radiation, DSePA/D-DSePA at a treatment concentration of 0.5 μM (dose close to IC50 as determined by clonogenic assay) was combined with varying absorbed doses (2-8 Gy) of γ-irradiation and the effect of combinatorial treatment on the viability of A549 cells was determined by clonogenic assay (FIG. 12A & 12B). For this, A549 cells exposed to the varying absorbed doses (2-8 Gy) of γ-radiation were immediately treated with DScPA/D-DScPA and cultured for seven days prior to clonogenic assay. […] The D10 value of the combinatorial treatment involving DScPA estimated was 4.5 Gy (FIG. 12B). […]
as §1, §2

A549 cells [3] = test: Clonogenic assay, combinatorial treatment with γ-irradiation in A549 cells; type: cell-based, human
Procedure: Further, clonogenic assay is considered as the gold standard method for evaluating the anticancer activity of any compound and is also a good indicator of the in vivo efficacy of any anticancer compound. Therefore, the therapeutic index of DSePA and D-DSePA in A549/WI-38 cells was also validated by employing the clonogenic assay. For this, A549/WI-38 cells were treated with the varying concentrations (0.1-2 μM)/(1-500 μM) of DSePA/D-DSePA for seven days and the survival fraction was calculated by counting the number of surviving clones (FIG. 11A). The plot of survival fraction verses the concentration of DScPA/D-DSCPA was used to estimate the IC50 of above compounds to inhibit the growth of A549/WI-38 cells. […] This clearly confirmed that deuteration of DScPA reduced its toxicity in normal cells without compromising its efficacy in cancer cells. Since anticancer agents are intended to be used in combination with radiation, DSePA/D-DSePA at a treatment concentration of 0.5 μM (dose close to IC50 as determined by clonogenic assay) was combined with varying absorbed doses (2-8 Gy) of γ-irradiation and the effect of combinatorial treatment on the viability of A549 cells was determined by clonogenic assay (FIG. 12A & 12B). For this, A549 cells exposed to the varying absorbed doses (2-8 Gy) of γ-radiation were immediately treated with DScPA/D-DScPA and cultured for seven days prior to clonogenic assay. […] The D10 value of the combinatorial treatment involving DScPA estimated was 4.5 Gy (FIG. 12B). Similarly, D10 value of the combinatorial treatment involving D-DSePA estimated was 4 Gy. From these values, the dose modification factor (DMF or the ratio of the D10 of combinatorial treatment to that of D10 of radiation) of DScPA and D-DScPA estimated was 0.87±0.01 and 0.83±0.02 respectively. […] While the objective of radiotherapy is to achieve tumor control, it is also known to cause normal tissue toxicity. Previously, DSePA has been reported to protect normal cells from lethal effects of γ-radiation. Thus radio-protective activity of D-DSePA was compared with DScPA in terms of their abilities to protect non-cancerous lung fibroblast (WI-38) cells against γ-irradiation induced cell death. For this, WI-38 cells were pretreated with DSePA/D-DScPA for 24 h at an identical concentration of 0.5 μM (close to IC50 required to inhibit growth of A549 lung cancer cells by clonogenic assay) and then exposed to varying doses (2-12 Gy) of γ-irradiation. The survival of cells against radiation exposure was estimated by clonogenic assay and the dose response curve was prepared in the presence and absence of drug (DSePA/D-DScPA) (FIG. 12C & 12D). By using this dose response curve, the dose modification factor (DMF or the ratio of the D10 of radiation plus drug and D10 of radiation alone) of DSePA and D-DSePA estimated was 1.12±0.03 and 1.16±0.05 respectively.
as §1, §2

O=C(O)CC[Se][Se]CCC(=O)O [DSePA, 3,3′-diselenodipropionic acid]
IC50 [1]: 5 to 50 µM
IC50 (A549 cells [2]): 1.2 ± 0.01 µM
dose modification factor (DMF, D10 of radiation plus drug / D10 of radiation alone) (WI-38 cells): 1.12±0.03
dose modification factor (DMF, D10 of combinatorial treatment / D10 of radiation) (A549 cells [3]; 0.5 μM drug immediately after γ-radiation (2-8 Gy)): 0.87±0.01
D10 value (decimal reduction dose) of the combinatorial treatment (A549 cells [3]; γ-radiation 2-8 Gy then 0.5 μM drug immediately, seven days, radiation alone D10 5 Gy): 4.5 Gy
